Laboratory results published in ChEMBL document CHEMBL3124792, “Discovery and preclinical characterization of the cyclopropylindolobenzazepine BMS-791325, a potent allosteric inhibitor of the hepatitis C virus NS5B polymerase” (J Med Chem, 2014).
Values after ≈ are worked out from the molar mass of the structure shown.

Columns and labels:
[1] = molecular target: RNA-directed RNA polymerase (Hepacivirus hominis, UniProt O39930, P495A); test: Inhibition of HCV Con1 genotype 1b NS5B RNA dependent RNA polymerase P495A mutant-mediated incorporation of radiolabeled nucleotides by scintillation proximity assay; parameters: species or system Hepatitis C virus (isolate Con1)
Sequence of RNA-directed RNA polymerase (O39930 entry or part of it P495A): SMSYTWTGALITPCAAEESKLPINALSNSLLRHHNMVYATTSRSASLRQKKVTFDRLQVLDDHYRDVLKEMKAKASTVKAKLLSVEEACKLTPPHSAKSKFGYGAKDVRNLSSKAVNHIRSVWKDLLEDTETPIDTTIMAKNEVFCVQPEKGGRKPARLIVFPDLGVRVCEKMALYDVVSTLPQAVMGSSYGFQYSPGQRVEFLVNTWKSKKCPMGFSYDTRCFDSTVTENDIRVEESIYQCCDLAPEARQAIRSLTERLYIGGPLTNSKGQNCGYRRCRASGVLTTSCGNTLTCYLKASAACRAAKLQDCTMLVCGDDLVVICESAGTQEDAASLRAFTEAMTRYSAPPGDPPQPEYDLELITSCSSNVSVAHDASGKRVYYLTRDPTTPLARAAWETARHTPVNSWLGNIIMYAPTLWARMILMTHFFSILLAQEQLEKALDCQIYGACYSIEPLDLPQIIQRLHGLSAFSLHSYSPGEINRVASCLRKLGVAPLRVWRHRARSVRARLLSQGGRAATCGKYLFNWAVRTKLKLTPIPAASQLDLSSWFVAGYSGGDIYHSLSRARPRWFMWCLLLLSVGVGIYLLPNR

[2] = Inhibition of HCV Con1 genotype 1b recombinant wild-type NS5B polymerase-mediated incorporation of radiolabeled nucleotides by scintillation proximity assay; parameters: species or system Hepatitis C virus (isolate Con1)
Hepatitis C virus [3] = test: Antiviral activity against Hepatitis C virus Con1 genotype 1b infected in human HuH7 cells after 3 days by FRET assay; type: functional, organism-based, Hepacivirus hominis; details: isolate Con1, Huh-7, 72 h
[4] = Cytotoxicity against human HuH7 cells by Alamar blue assay; type: cell-based; details: Huh-7 cells
Hepatitis C virus [5] = test: Antiviral activity against Hepatitis C virus Con1 genotype 1b infected in human HuH7 cells after 3 days by FRET assay in presence of 40% human serum; type: functional, organism-based, Hepacivirus hominis; details: isolate Con1, Huh-7, 72 h
Hepatitis C virus [6] = test: Antiviral activity against Hepatitis C virus H77c genotype 1a infected in human HuH7 cells after 3 days by FRET assay; type: functional, organism-based, Hepacivirus hominis; details: genotype 1a H77, Huh-7, 72 h
[7] = Solubility of the compound in amorphous form in phosphate buffer at pH 6.5; type: physicochemical
[8] = molecular target: T1, Nuclear receptor subfamily 1 group I member 2 (Homo sapiens, UniProt O75469); test: Transactivation of human PXR expressed in human HepG2 cells by luciferase reporter gene assay; type: cell-based
T1 sequence (O75469 whole entry): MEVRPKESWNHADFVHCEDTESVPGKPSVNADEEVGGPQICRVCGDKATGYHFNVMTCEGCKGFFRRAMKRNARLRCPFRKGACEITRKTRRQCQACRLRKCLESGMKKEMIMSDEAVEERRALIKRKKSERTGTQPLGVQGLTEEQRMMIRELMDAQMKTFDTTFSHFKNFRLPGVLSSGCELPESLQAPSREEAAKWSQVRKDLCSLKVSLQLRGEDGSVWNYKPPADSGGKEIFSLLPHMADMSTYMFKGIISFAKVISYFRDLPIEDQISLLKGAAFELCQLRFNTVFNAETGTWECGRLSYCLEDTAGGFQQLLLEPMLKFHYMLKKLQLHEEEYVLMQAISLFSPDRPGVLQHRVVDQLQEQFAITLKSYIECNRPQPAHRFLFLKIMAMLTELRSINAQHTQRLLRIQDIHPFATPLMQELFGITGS

Liver microsome [9] = details: rat, microsomes
Liver microsome [10] = details: human, microsomes
[11] = Permeability of the compound at pH 7.4 by PAMPA; type: physicochemical; details: read-out: permeability
PXR (NR1I2) = molecular target: T2, PXR (NR1I2) (Homo sapiens, UniProt O75469); test: Transactivation of human PXR expressed in human HepG2 cells by luciferase reporter gene assay relative to control; type: cell-based; details: HepG2 cells expressing human PXR, read-out: %max
T2 sequence (O75469 whole entry): T1 sequence (O75469 whole entry)

EC50 (Hepatitis C virus [5]) | solubility [7] | EC50 [8] | Stability (Liver microsome [9]) | Stability (Liver microsome [10]) | Papp [11] | Emax (PXR (NR1I2)) | EC20 ([8]; human, hepg2) | SMILES | EC50 [1] | IC50 [2] | EC50 (Hepatitis C virus [3]) | CC50 [4] | EC50 (Hepatitis C virus [6])
 |  |  |  |  |  |  |  | O=C(O)c1ccc2c(C3CCCCC3)c3n(c2c1)CC(C(=O)N1CCOCC1)=Cc1ccccc1-3 | 3400 nM | 106 nM | 359 nM | > 10000 nM | 404 nM
 |  |  |  |  |  |  |  | CN(C)S(=O)(=O)NC(=O)c1ccc2c(C3CCCCC3)c3n(c2c1)CC(C(=O)N1CCOCC1)=Cc1ccccc1-3 | 1100 nM | 52 nM | 148 nM | > 10000 nM | 119 nM
 |  |  |  |  |  |  |  | COc1ccc2c(c1)C=C(C(=O)N1CCOCC1)Cn1c-2c(C2CCCCC2)c2ccc(C(=O)NS(=O)(=O)N(C)C)cc21 | 239 nM | 49 nM | 62 nM | > 10000 nM | 61 nM
 |  |  |  |  |  |  |  | O=C(O)c1ccc2c(C3CCCCC3)c3n(c2c1)C[C@]1(C(=O)N2CCOCC2)C[C@@H]1c1ccccc1-3 | 890 nM | 93 nM | 336 nM | > 10000 nM | 472 nM
 |  |  |  |  |  |  |  | CN(C)S(=O)(=O)NC(=O)c1ccc2c(C3CCCCC3)c3n(c2c1)C[C@]1(C(=O)N2CCOCC2)C[C@@H]1c1ccccc1-3 | 630 nM | 165 nM | 143 nM | > 10000 nM | 259 nM
89 nM | 18 µg/mL (≈ 27.2 µM) | > 50000 nM | 100% | 93% | 34 ×10⁻⁶ cm/s |  |  | COc1ccc2c(c1)C1CC1(C(=O)N1CCN(C(C)=O)CC1)Cn1c-2c(C2CCCCC2)c2ccc(C(=O)NS(=O)(=O)N(C)C)cc21 (racemic) |  |  | 98 nM | > 10000 nM | 45 nM
59 nM | 18 µg/mL (≈ 26.1 µM) | > 50000 nM | 93% | 64% | 43 ×10⁻⁶ cm/s |  |  | COc1ccc2c(c1)C1CC1(C(=O)N1CCN(C(=O)N(C)C)CC1)Cn1c-2c(C2CCCCC2)c2ccc(C(=O)NS(=O)(=O)N(C)C)cc21 (racemic) |  |  | 54 nM | > 10000 nM | 23 nM
39 nM |  | > 50000 nM | 100% | 100% |  |  |  | COc1ccc2c(c1)C1CC1(C(=O)N1C3CC1CN(C)C3)Cn1c-2c(C2CCCCC2)c2ccc(C(=O)NS(=O)(=O)N(C)C)cc21 (racemic) |  |  | 12 nM | 10000 nM | 4 nM
98 nM |  |  |  |  |  |  | 2800 nM | COc1ccc2c(c1)C1CC1(C(=O)N1C[C@@H](C)O[C@@H](C)C1)Cn1c-2c(C2CCCCC2)c2ccc(C(=O)NS(=O)(=O)N(C)C)cc21 (mixture of isomers) |  |  | 24 nM | 9000 nM | 12 nM
114 nM |  | 600 nM |  |  |  | 144% |  | COc1ccc2c(c1)C1CC1(C(=O)N1CC3CCC(C1)O3)Cn1c-2c(C2CCCCC2)c2ccc(C(=O)NS(=O)(=O)N(C)C)cc21 (racemic) |  |  | 31 nM | > 10000 nM | 7 nM
115 nM |  | > 3000 nM | 100% | 100% | 47 ×10⁻⁶ cm/s | 32% |  | COc1ccc2c(c1)C1CC1(C(=O)N1CC(O)(C(F)(F)F)C1)Cn1c-2c(C2CCCCC2)c2ccc(C(=O)NS(=O)(=O)N(C)C)cc21 (racemic) |  |  | 50 nM | > 10000 nM | 15 nM
65 nM |  | > 50000 nM | 100% | 72% | 74 ×10⁻⁶ cm/s | 14% |  | COc1ccc2c(c1)C1CC1(C(=O)N1CC(O)(C(C)C)C1)Cn1c-2c(C2CCCCC2)c2ccc(C(=O)NS(=O)(=O)N(C)C)cc21 (racemic) |  |  | 23 nM | 6500 nM | < 14 nM
68 nM |  | > 50000 nM | 100% | 100% | 19 ×10⁻⁶ cm/s | 12% |  | COc1ccc2c(c1)C1CC1(C(=O)N1CC(O)(C3CC3)C1)Cn1c-2c(C2CCCCC2)c2ccc(C(=O)NS(=O)(=O)N(C)C)cc21 (racemic) |  |  | 29 nM | > 10000 nM | < 14 nM
 |  | > 50000 nM | 100% | 72% | 39 ×10⁻⁶ cm/s | 10% |  | COc1ccc2c(c1)C1CC1(C(=O)N1CC(O)(c3ccccc3)C1)Cn1c-2c(C2CCCCC2)c2ccc(C(=O)NS(=O)(=O)N(C)C)cc21 (racemic) |  |  | 160 nM | 8000 nM | 68 nM
 |  | > 50000 nM | 100% | 87% |  | 3% |  | COc1ccc2c(c1)C1CC1(C(=O)N1CC(O)(c3ccc(F)cc3)C1)Cn1c-2c(C2CCCCC2)c2ccc(C(=O)NS(=O)(=O)N(C)C)cc21 (racemic) |  |  | 220 nM | 7000 nM | 54 nM
55 nM | < 1 µg/mL | > 50000 nM | 100% | 91% | 14 ×10⁻⁶ cm/s |  |  | COc1ccc2c(c1)C1CC1(C(=O)N1C[C@@H](C)N[C@@H](C)C1)Cn1c-2c(C2CCCCC2)c2ccc(C(=O)NS(=O)(=O)N(C)C)cc21 (mixture of isomers) |  |  | 29 nM | 15000 nM | 21 nM

SMILES | EC50 (Hepatitis C virus [5]) | solubility [7] | EC50 [8] | Stability (Liver microsome [9]) | Stability (Liver microsome [10]) | Papp [11] | Emax (PXR (NR1I2)) | EC20 ([8]; human, hepg2) | EC50 [1] | IC50 [2] | EC50 (Hepatitis C virus [3]) | CC50 [4] | EC50 (Hepatitis C virus [6])
CN(C)S(=O)(=O)NC(=O)c1ccc2c(C3CCCCC3)c3n(c2c1)C[C@@]1(C(=O)N2CCOCC2)C[C@H]1c1ccccc1-3 | 218 nM |  |  |  |  |  |  |  | 240 nM | 27 nM | 31 nM | > 10000 nM | 26 nM
COc1ccc2c(c1)C1CC1(C(=O)N1C3CCC1CNC3)Cn1c-2c(C2CCCCC2)c2ccc(C(=O)NS(=O)(=O)N(C)C)cc21 (racemic) |  |  | 9000 nM | 100% | 96% | 4 ×10⁻⁶ cm/s | 31% |  |  |  | 32 nM | > 10000 nM | 14 nM
COc1ccc2c(c1)C1CC1(C(=O)N1CC3CCC(C1)N3)Cn1c-2c(C2CCCCC2)c2ccc(C(=O)NS(=O)(=O)N(C)C)cc21 (racemic) |  |  | > 50000 nM | 100% | 100% | 0.2 ×10⁻⁶ cm/s |  |  |  |  | 89 nM | > 10000 nM | 34 nM
COc1ccc2c(c1)C1CC1(C(=O)N1C3CCC1CN(C)C3)Cn1c-2c(C2CCCCC2)c2ccc(C(=O)NS(=O)(=O)N(C)C)cc21 (racemic) | 45 nM | 44 µg/mL (≈ 66.7 µM) |  | 100% | 90% | 77 ×10⁻⁶ cm/s | 21% |  |  |  | 13 nM | > 10000 nM | 5 nM
COc1ccc2c(c1)C1CC1(C(=O)N1CC3CCC(C1)N3C)Cn1c-2c(C2CCCCC2)c2ccc(C(=O)NS(=O)(=O)N(C)C)cc21 (racemic) | 153 nM | 41 µg/mL (≈ 62.1 µM) | 3000 nM | 100% | 100% | 21 ×10⁻⁶ cm/s | 29% |  |  |  | 39 nM | > 16000 nM | 16 nM
CCN1CC2CCC(C1)N2C(=O)C12CC1c1cc(OC)ccc1-c1c(C3CCCCC3)c3ccc(C(=O)NS(=O)(=O)N(C)C)cc3n1C2 (racemic) | 37 nM |  | > 50000 nM | 98% | 98% | 41 ×10⁻⁶ cm/s |  |  |  |  | 22 nM | > 10000 nM | 4 nM
